According to BigSolDB 2.1:

O=C[C@H](O)[C@H](O)[C@H](O)CO
solubility (mole fraction)
Conditions | 283.15 K | 288.15 K | 293.15 K | 298.15 K | 303.15 K | 313.15 K | 323.15 K
in acetone | 0.00234 | – | 0.00302 | – | 0.00509 | 0.0077 | 0.0118
in acetonitrile | 0.00109 | – | 0.00144 | – | 0.0022 | 0.00357 | 0.00626
in dichloromethane | 0.000102 | 0.000257 | 0.000367 | 0.000402 | 0.000529 | – | –
in ethanol | 0.00798 | – | 0.0121 | – | 0.0213 | 0.0394 | 0.0675
in ethyl acetate | 0.000876 | – | 0.00107 | – | 0.00162 | 0.00257 | 0.0036
in isobutanol | 0.00334 | – | 0.00421 | – | 0.0063 | 0.0102 | 0.0156
in isopropanol | 0.00457 | – | 0.00703 | – | 0.0117 | 0.021 | 0.0426
in methanol | 0.0313 | 0.0457 | 0.0587 | 0.0771 | 0.108 | – | –
in n-butanol | 0.00388 | – | 0.00485 | – | 0.00814 | 0.0124 | 0.0201
in n-hexane | 3.77e-05 | – | 7.32e-05 | – | 0.000101 | 0.000174 | 0.000205
in n-propanol | 0.00515 | – | 0.00691 | – | 0.0112 | 0.0179 | 0.0305
in sec-butanol | 0.00484 | – | 0.00567 | – | 0.00894 | 0.0152 | 0.0242
